{"source": "PubChem BioAssay AID330", "about": "(DTP/NCI, 2004)", "system": "P388 leukemia ip, CD2F1 mice, survival T/C", "assay": "NCI In Vivo Anticancer Drug Screen. Data for tumor model P388 Leukemia (intraperitoneal) in CD2F1 (CDF1) mice", "settings": "endpoint: median survival time, higher = longer survival", "in_short": "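Mice carrying the transplanted tumor received test compound or vehicle. Survival was recorded in each group, and the value is the treated-group measurement divided by that of the vehicle-treated control group.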", "key": {"[1]": {"settings": "dose: 50.0 mg/kg/injection, schedule: Q01DX009 (ip), vehicle: saline"}, "[2]": {"settings": "dose: 100.0 mg/kg/injection, schedule: Q01DX009 (ip), vehicle: saline"}, "[3]": {"settings": "dose: 200.0 mg/kg/injection, schedule: Q01DX009 (ip), vehicle: saline"}, "[4]": {"settings": "dose: 400.0 mg/kg/injection, schedule: Q01DX009 (ip), vehicle: saline"}, "[5]": {"settings": "dose: 60.0 mg/kg/injection, schedule: Q01DX005 (ip), vehicle: Klucel (hydroxypropylcellulose) (HPC)"}}, "note": "“And” between values parts separate entries of the source, which are not always exact repeats. Identical values can stand only once. Toxic doses and inconclusive results are not listed.", "data": [{"molecule": "Nc1ccn(C2OC3COC2C3O)c(=O)n1", "note": "(stereo not drawn)", "values": [{"measurement": "T/C", "setting": "dose: 25.0 mg/kg/injection, schedule: Q01DX009 (ip), vehicle: saline", "value": "112 % of control"}, {"measurement": "T/C", "setting": "dose: 50.0 mg/kg/injection, schedule: Q01DX009 (ip), vehicle: saline + alcohol", "value": "100 % of control"}, {"measurement": "T/C", "setting": "[1]", "value": "110 % of control"}, {"measurement": "T/C", "setting": "dose: 100.0 mg/kg/injection, schedule: Q01DX009 (ip), vehicle: saline + alcohol", "value": "105 % of control"}, {"measurement": "T/C", "setting": "[2]", "value": "116 % of control"}, {"measurement": "T/C", "setting": "dose: 200.0 mg/kg/injection, schedule: Q01DX009 (ip), vehicle: saline + alcohol", "value": "112 % of control"}, {"measurement": "T/C", "setting": "[3]", "value": "117 % of control"}, {"measurement": "T/C", "setting": "dose: 400.0 mg/kg/injection, schedule: Q01DX009 (ip), vehicle: saline + alcohol", "value": "112 % of control"}, {"measurement": "T/C", "setting": "[4]", "value": "122 % of control"}, {"measurement": "T/C", "setting": "dose: 800.0 mg/kg/injection, schedule: Q01DX009 (ip), vehicle: saline + alcohol", "value": "114 % of control"}]}, {"molecule": "O=c1[nH]c2c(ccc3cnccc32)c2c1CCC2", "values": [{"measurement": "T/C", "setting": "dose: 12.5 mg/kg/injection, schedule: Q01DX009 (ip), vehicle: saline", "value": "122 % of control"}, {"measurement": "T/C", "setting": "[1]", "value": "94 % of control"}]}, {"molecule": "O=C(CS)Nc1ccccn1", "values": [{"measurement": "T/C", "setting": "dose: 12.5 mg/kg/injection, schedule: Q01DX009 (ip), vehicle: Klucel (hydroxypropylcellulose) (HPC)", "value": "104 % of control"}, {"measurement": "T/C", "setting": "dose: 25.0 mg/kg/injection, schedule: Q01DX009 (ip), vehicle: Klucel (hydroxypropylcellulose) (HPC)", "value": "103 % of control"}, {"measurement": "T/C", "setting": "dose: 50.0 mg/kg/injection, schedule: Q01DX009 (ip), vehicle: Klucel (hydroxypropylcellulose) (HPC)", "value": "103 % of control and 114 % of control"}]}, {"molecule": "CCNc1cc2oc(=O)cc(C(F)(F)F)c2cc1C", "values": [{"measurement": "T/C", "setting": "dose: 50.0 mg/kg/injection, schedule: Q01DX005 (ip), vehicle: Klucel (hydroxypropylcellulose) (HPC)", "value": "97 % of control"}, {"measurement": "T/C", "setting": "dose: 100.0 mg/kg/injection, schedule: Q01DX005 (ip), vehicle: Klucel (hydroxypropylcellulose) (HPC)", "value": "100 % of control"}, {"measurement": "T/C", "setting": "dose: 200.0 mg/kg/injection, schedule: Q01DX005 (ip), vehicle: Klucel (hydroxypropylcellulose) (HPC)", "value": "99 % of control"}]}, {"molecule": "C/C=C\\C1OC1(C)c1cc(=O)c2c(C)cc3c(c2o1)C(=O)c1c(O)c(C2CC(C)(N(C)C)C(OC(C)=O)C(C)O2)cc(C2CC(N(C)C)C(O)C(C)O2)c1C3=O", "note": "(stereo not drawn)", "values": [{"measurement": "T/C", "setting": "dose: 1.0 mg/kg/injection, schedule: Q01DX009 (ip), vehicle: saline + alcohol", "value": "122 % of control"}, {"measurement": "T/C", "setting": "dose: 1.0 mg/kg/injection, schedule: Q01DX010 (ip), vehicle: saline", "value": "154 % of control"}, {"measurement": "T/C", "setting": "dose: 2.0 mg/kg/injection, schedule: Q01DX010 (ip), vehicle: saline", "value": "95 % of control"}]}, {"molecule": "Cn1cc(N=P(c2ccccc2)(c2ccccc2)c2ccccc2)c(=O)n(C)c1=O", "values": [{"measurement": "T/C", "setting": "dose: 15.0 mg/kg/injection, schedule: Q01DX005 (ip), vehicle: Klucel (hydroxypropylcellulose) (HPC)", "value": "114 % of control"}, {"measurement": "T/C", "setting": "dose: 30.0 mg/kg/injection, schedule: Q01DX005 (ip), vehicle: Klucel (hydroxypropylcellulose) (HPC)", "value": "105 % of control"}, {"measurement": "T/C", "setting": "[5]", "value": "107 % of control"}]}, {"molecule": "COC1C(O)C(CO)OC1n1ccc(NC(=O)c2ccccc2)nc1=O", "note": "(stereo not drawn)", "values": [{"measurement": "T/C", "setting": "[5]", "value": "98 % of control and 93 % of control"}, {"measurement": "T/C", "setting": "dose: 120.0 mg/kg/injection, schedule: Q01DX005 (ip), vehicle: Klucel (hydroxypropylcellulose) (HPC)", "value": "94 % of control"}, {"measurement": "T/C", "setting": "dose: 240.0 mg/kg/injection, schedule: Q01DX005 (ip), vehicle: Klucel (hydroxypropylcellulose) (HPC)", "value": "91 % of control and 93 % of control"}]}, {"molecule": "C[N+]1(C)N=C([O-])N(Cc2ccccc2)C1=O", "values": [{"measurement": "T/C", "setting": "dose: 100.0 mg/kg/injection, schedule: Q04DX003 (ip), vehicle: saline", "value": "118 % of control"}, {"measurement": "T/C", "setting": "dose: 200.0 mg/kg/injection, schedule: Q04DX003 (ip), vehicle: saline", "value": "106 % of control"}]}, {"molecule": "O=C1NCC(=O)C(=O)N1", "values": [{"measurement": "T/C", "setting": "[1]", "value": "100 % of control and 106 % of control"}, {"measurement": "T/C", "setting": "[2]", "value": "101 % of control and 103 % of control"}, {"measurement": "T/C", "setting": "[3]", "value": "100 % of control and 110 % of control"}, {"measurement": "T/C", "setting": "[4]", "value": "103 % of control and 105 % of control"}]}, {"molecule": "CSc1nc2c(nnn2C2OCC(O)C(O)C2O)c(=O)n1C", "note": "(stereo not drawn)", "values": [{"measurement": "T/C", "setting": "dose: 60.0 mg/kg/injection, schedule: Q01DX005 (ip), vehicle: saline with Tween-80", "value": "102 % of control"}, {"measurement": "T/C", "setting": "dose: 120.0 mg/kg/injection, schedule: Q01DX005 (ip), vehicle: saline with Tween-80", "value": "99 % of control"}, {"measurement": "T/C", "setting": "dose: 240.0 mg/kg/injection, schedule: Q01DX005 (ip), vehicle: saline with Tween-80", "value": "96 % of control"}]}, {"molecule": "Cc1cccc(=O)[n-]1.Cc1cccc(=O)[n-]1.Cc1cccc(=O)[n-]1.Cc1cccc(=O)[n-]1.[Cu+].[Cu+].[Cu+].[Cu+]", "values": [{"measurement": "T/C", "setting": "dose: 12.5 mg/kg/injection, schedule: Q04DX002 (ip), vehicle: Klucel (hydroxypropylcellulose) (HPC)", "value": "108 % of control"}, {"measurement": "T/C", "setting": "dose: 25.0 mg/kg/injection, schedule: Q04DX002 (ip), vehicle: Klucel (hydroxypropylcellulose) (HPC)", "value": "109 % of control"}, {"measurement": "T/C", "setting": "dose: 50.0 mg/kg/injection, schedule: Q04DX002 (ip), vehicle: Klucel (hydroxypropylcellulose) (HPC)", "value": "100 % of control"}, {"measurement": "T/C", "setting": "dose: 100.0 mg/kg/injection, schedule: Q04DX002 (ip), vehicle: Klucel (hydroxypropylcellulose) (HPC)", "value": "108 % of control"}]}, {"molecule": "COc1ccc2c(c1)CCC1=C2CCS1(=O)=O", "values": [{"measurement": "T/C", "setting": "dose: 50.0 mg/kg/injection, schedule: Q01DX005 (ip), vehicle: saline with Tween-80", "value": "99 % of control"}, {"measurement": "T/C", "setting": "dose: 100.0 mg/kg/injection, schedule: Q01DX005 (ip), vehicle: saline with Tween-80", "value": "97 % of control"}, {"measurement": "T/C", "setting": "dose: 200.0 mg/kg/injection, schedule: Q01DX005 (ip), vehicle: saline with Tween-80", "value": "103 % of control"}]}]}
